# What was measured:
# [1] = molecular target: tyrosine phenol-lyase (wild type TPL) (Citrobacter freundii, UniProt P31013); test: absorbance titration at […] nm; type: binding
# [2] = molecular target: T1, tyrosine phenol-lyase (M379A TPL) (Citrobacter freundii, UniProt P31013, M379A); test: X-ray crystal structure; type: binding
# [3] = molecular target: T1, tyrosine phenol-lyase (M379A TPL); test: LDH-coupled steady-state kinetics of purified enzyme; type: biochemical
Compound,Kd [1],Kd [2],"M379A TPL / k cat/K M, M^-1 s^-1 [3]"
CSCC[C@H](N)C(=O)O [L-methionine],790 µM,1740 µM,–
"N[C@@H](Cc1ccc(O)cc1)C(=O)O [compound 1, L-tyrosine]",–,–,148 M^-1 s^-1 (kcat/KM)
"N[C@@H](Cc1ccc(O)c(F)c1)C(=O)O [compound 3, 3-F-L-tyrosine]",–,–,774 M^-1 s^-1 (kcat/KM)
